Assay results published in US20180201614A1, “BICYCLIC COMPOUNDS” (KALYRA PHARMACEUTICALS, INC., priority 2015, published 2018).

Assays:
[1] = test system: A431 (WT) cells; assay: EGFR cell proliferation assay (CellTiter-Glo), A431; format: cell-based; settings: Homo sapiens, A-431, 3-5 days
Protocol: (§1) Cell Lines: A431 (WT), H1975 (L858R/T790M), PC9 (E746-A750 deletion): A431 cells were grown in DMEM (Invitrogen, Carlsbad, Calif.) supplemented with 10% FBS (HyClone, South Logan, Utah) and 1% Penicillin-Streptomycin (P/S, Lonza, Walkersville, Md.). H1975 cells were grown in RPMI 1640 (Invitrogen) supplemented with 10% FBS and 1% P/S. […] PC-9 cells were obtained from Japan. All cells were maintained and propagated as monolayer cultures at 37° C. in a humidified 5% CO2 incubator. All cells were cultured according to recommendations.
(§2) Cell proliferation was measured using the CellTiter-Glo® Luminescent Cell Viability Assay. The assay involved the addition of a single reagent (CellTiter-Glo® Reagent) directly to cells cultured in serum-supplemented medium. The assay used a one-step addition to induce cell lysis and generate a luminescent signal proportional to the amount of ATP present, which is directly proportional to the number of metabolically active cells present in culture.
(§3) Each compound evaluated was prepared as a DMSO stock solution (10 mM). Compounds were tested in duplicate on each plate, with an 11-point serial dilution curve (1:3 dilution). Compound treatment (50 μL) was added from the compound dilution plate to the cell plate. The highest compound concentration was 1 or 10 μM (final), with a 0.3% final DMSO (#D-5879, Sigma, St Louis, Mo.) concentration. Plates were then incubated at 37° C., 5% CO2. After 3-5 days of compound treatment, CellTiter-Glo® Reagent (#G7573, Promega, Madison, Wis.) was prepared in one of two ways. If thawing a frozen aliquot of CellTiter-Glo® Reagent, the aliquot was thawed and equilibrated to RT prior to use while keeping it protected from light. Alternatively, new bottles of CellTiter-Glo® Buffer and CellTiter-Glo® Substrate were thawed and equilibrated to RT prior to use. CellTiter-Glo® Buffer (100 mL) was transferred into the amber bottle containing CellTiter-Glo® Substrate to reconstitute the lyophilized enzyme/substrate mixture, forming the CellTiter-Glo® Reagent. The reconstituted reagent was mixed by gently inverting the contents to obtain a homogeneous solution, and went into solution easily in less than 1 min. Any unused reconstituted CellTiter-Glo® Reagent was immediately aliquoted and frozen at −20° C., and protected from light. Cell plates were equilibrated at RT for approximately 30 mins. An equi-volume amount of CellTiter-Glo® Reagent (100 μL) was added to each well. Plates were mixed for 2 mins on an orbital shaker to induce cell lysis, and then were allowed to incubate at RT for 10 mins to stabilize the luminescent signal. Luminescence was recorded using the PerkinElmer EnVision Excite Multilabel Reader used for endpoint reading for luminescence detection (Waltham, Mass.). Data was analyzed using a four-parameter fit in Microsoft Excel.

[2] = molecular target: INSR (Homo sapiens, UniProt P06213); assay: Biochemical enzyme assay, INSR
[3] = molecular target: EGFR L858R (Homo sapiens, UniProt P00533, L858R); assay: EGFR biochemical enzyme assay, L858R
[4] = molecular target: IGF1R (Homo sapiens, UniProt P08069); assay: Biochemical enzyme assay, IGF1R
[5] = molecular target: T1, EGFR Del-19 (Homo sapiens, UniProt P00533); assay: EGFR biochemical enzyme assay, Del-19
T1 construct: as on the sister T790M/L858R enzyme

[6] = molecular target: EGFR Wt (Homo sapiens, UniProt P00533); assay: EGFR biochemical enzyme assay, Wt
[7] = test system: PC9 (E746-A750 deletion) cells; assay: EGFR cell proliferation assay (CellTiter-Glo), PC9; format: cell-based; settings: 3-5 days
Protocol: as §1, §2, §3

[8] = test system: H1975 (L858R/T790M) cells; assay: EGFR cell proliferation assay (CellTiter-Glo), H1975; format: cell-based; settings: Homo sapiens, NCI-H1975, 3-5 days
Protocol: as §1, §2, §3

[9] = molecular target: T2, human EGFR (T790M/L858R) (Homo sapiens, UniProt P00533, L858R/T790M); assay: EGFR biochemical enzyme assay (HTRF KinEASE TK); settings: 30 μM ATP
T2 construct: with amino acids 696-end containing the T790M and L858R mutations; GST (N); purchased Millipore
Protocol: The inhibitory activity of a compound against EGFR (T790M/L858R) were determined with CisBio HTRF (homogenous time-resolved fluorescence) KinEASE TK (#62TKOPEC). The enzyme reaction contained recombinant N-terminal GST-tagged human EGFR (T790M/L858R), which phosphorylates the HTRF tyrosine kinase biotinylated substrate.
The sequence of the substrate is proprietary to CisBio. Test compounds were serially diluted in 100% (v/v) DMSO before being acoustically dispensed from an Echo 555 (Labcyte) into black Corning 1536-well assay plates. Kinase activity assays were performed in a total reaction volume of 3 μL per well. A 1.5 μL enzyme reaction consisted of 1.6 nM EGFR ([…], L858R), 1 mM DTT, and 10 mM MgCl2. A 1.5 μL substrate mix consisted of 1 μM TK substrate, 30 μM ATP, 1 mM DTT, and 10 mM MgCl2. Following a 50 mins incubation, 3 μL of stop mix was added, which consisted of 250 nM Strep-XL665 and TK Ab-Cryptate diluted in kit detection buffer. The plates were incubated for 1 h before being read on Pherastar using standard HTRF settings. N-terminal GST-tagged recombinant human EGF receptor, with amino acids 696-end containing the T790M and L858R mutations, was obtained from Millipore.

Sequence of INSR (P06213 28-1382, species assumed): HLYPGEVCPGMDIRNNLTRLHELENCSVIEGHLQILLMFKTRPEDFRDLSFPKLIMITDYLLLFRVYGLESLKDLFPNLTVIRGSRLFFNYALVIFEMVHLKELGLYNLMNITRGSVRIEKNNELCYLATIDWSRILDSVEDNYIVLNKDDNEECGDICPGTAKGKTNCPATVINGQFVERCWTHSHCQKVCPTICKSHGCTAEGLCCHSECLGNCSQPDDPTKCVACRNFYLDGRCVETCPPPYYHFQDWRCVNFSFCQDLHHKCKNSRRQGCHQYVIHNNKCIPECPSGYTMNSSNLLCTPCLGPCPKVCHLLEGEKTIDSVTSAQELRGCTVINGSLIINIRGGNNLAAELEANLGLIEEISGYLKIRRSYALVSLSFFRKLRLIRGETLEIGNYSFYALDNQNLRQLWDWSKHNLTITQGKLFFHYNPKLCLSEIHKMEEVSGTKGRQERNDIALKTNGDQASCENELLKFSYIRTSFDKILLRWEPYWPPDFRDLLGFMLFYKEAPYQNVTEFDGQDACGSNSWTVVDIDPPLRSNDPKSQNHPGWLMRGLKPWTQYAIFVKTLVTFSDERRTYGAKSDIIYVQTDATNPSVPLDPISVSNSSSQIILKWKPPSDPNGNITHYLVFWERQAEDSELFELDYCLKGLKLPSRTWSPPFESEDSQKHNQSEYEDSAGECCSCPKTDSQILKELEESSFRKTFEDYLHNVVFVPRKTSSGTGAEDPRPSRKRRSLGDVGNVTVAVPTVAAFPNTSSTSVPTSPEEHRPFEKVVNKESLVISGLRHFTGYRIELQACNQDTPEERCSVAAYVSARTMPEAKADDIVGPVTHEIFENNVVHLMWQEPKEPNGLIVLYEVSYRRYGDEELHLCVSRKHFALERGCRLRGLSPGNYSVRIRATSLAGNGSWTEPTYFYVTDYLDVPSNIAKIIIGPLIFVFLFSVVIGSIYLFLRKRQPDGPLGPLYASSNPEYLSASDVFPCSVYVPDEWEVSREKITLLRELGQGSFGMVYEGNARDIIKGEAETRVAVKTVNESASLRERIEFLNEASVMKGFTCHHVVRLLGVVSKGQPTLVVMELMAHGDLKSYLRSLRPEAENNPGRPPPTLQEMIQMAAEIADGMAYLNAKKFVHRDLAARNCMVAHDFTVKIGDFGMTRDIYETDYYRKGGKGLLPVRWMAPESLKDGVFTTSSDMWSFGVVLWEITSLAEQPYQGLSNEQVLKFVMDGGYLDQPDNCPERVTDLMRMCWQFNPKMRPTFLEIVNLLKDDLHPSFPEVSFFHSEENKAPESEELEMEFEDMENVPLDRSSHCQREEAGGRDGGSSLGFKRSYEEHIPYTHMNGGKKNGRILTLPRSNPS
Sequence of EGFR Wt (P00533 25-1210): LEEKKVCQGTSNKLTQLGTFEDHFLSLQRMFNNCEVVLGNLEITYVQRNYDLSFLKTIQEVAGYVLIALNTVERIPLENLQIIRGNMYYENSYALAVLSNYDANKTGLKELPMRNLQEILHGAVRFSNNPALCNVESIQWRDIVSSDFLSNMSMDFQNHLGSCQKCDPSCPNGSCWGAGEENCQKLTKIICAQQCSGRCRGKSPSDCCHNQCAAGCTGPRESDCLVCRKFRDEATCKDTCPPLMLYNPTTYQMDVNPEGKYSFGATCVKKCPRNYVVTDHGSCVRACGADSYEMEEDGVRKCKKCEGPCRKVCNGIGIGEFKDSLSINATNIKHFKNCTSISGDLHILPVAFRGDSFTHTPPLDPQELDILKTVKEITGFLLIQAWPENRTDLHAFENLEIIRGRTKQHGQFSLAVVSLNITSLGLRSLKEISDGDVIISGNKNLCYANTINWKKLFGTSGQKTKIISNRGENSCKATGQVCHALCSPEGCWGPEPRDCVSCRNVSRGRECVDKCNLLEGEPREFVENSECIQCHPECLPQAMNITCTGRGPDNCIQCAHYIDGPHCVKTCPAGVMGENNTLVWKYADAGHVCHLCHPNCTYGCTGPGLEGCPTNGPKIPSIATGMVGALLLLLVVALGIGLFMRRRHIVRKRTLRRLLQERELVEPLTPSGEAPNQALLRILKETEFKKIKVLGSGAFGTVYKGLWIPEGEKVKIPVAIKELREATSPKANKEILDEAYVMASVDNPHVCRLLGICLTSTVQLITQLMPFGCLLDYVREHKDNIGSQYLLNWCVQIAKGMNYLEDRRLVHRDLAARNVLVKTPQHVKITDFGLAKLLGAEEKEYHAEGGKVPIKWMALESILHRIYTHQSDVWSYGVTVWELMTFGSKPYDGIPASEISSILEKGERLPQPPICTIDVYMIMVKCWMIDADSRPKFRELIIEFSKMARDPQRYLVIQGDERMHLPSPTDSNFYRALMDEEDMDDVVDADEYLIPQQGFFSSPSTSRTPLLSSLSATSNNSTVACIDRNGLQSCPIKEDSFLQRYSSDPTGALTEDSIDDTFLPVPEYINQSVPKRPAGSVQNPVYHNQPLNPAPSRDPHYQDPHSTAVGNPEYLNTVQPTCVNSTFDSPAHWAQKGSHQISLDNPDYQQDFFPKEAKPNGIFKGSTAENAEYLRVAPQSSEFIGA
T2 sequence (P00533 696-1210 T790M/L858R): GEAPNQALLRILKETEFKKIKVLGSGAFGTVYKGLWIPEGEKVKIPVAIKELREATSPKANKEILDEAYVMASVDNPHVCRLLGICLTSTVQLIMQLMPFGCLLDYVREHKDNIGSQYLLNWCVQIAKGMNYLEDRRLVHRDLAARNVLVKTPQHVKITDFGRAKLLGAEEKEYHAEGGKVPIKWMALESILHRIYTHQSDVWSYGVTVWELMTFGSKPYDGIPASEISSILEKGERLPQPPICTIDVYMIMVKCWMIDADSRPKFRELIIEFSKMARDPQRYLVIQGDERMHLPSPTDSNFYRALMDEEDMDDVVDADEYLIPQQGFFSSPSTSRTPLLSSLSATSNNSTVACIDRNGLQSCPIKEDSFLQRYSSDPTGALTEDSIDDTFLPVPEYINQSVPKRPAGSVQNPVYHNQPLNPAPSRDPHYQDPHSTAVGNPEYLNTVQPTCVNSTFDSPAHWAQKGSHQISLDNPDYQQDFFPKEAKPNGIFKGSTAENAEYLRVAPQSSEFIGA
T1 sequence (P00533 with tags, fused parts or gaps DEL746-750): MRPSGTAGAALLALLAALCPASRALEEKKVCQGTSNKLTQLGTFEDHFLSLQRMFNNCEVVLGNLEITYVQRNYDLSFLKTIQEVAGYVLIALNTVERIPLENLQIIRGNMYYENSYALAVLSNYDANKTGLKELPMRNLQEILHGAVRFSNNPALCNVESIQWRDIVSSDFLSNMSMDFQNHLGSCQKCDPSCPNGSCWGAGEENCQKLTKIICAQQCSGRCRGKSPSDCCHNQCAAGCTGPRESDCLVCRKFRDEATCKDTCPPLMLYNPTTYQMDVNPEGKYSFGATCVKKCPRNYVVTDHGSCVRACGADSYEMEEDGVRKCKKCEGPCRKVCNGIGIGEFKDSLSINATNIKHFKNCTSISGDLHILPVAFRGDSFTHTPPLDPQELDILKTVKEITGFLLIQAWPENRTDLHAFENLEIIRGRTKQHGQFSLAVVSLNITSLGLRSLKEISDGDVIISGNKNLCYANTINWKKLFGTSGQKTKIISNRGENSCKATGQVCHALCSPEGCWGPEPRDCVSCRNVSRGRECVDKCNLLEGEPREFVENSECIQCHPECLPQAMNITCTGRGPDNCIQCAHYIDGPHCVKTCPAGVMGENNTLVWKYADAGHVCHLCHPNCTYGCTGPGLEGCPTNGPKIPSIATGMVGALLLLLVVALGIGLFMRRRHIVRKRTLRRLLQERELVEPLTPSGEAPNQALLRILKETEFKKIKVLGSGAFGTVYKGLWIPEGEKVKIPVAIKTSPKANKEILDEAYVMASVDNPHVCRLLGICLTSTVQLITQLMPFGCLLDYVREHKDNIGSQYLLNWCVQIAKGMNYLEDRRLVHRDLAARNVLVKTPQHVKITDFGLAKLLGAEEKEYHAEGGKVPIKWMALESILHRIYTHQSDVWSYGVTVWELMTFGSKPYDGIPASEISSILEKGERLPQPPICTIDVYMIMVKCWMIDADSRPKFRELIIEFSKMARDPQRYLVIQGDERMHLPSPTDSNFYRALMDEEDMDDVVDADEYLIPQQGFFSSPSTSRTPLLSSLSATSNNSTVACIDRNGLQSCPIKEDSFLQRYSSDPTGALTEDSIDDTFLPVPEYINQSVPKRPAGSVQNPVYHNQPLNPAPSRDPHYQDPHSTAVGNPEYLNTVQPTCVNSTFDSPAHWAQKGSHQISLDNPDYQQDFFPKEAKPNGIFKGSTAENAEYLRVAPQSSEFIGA

In the case of `C=CC(=O)N[C@@H]1CN(c2nc(Nc3cn(C)nc3OC)c3ncn(C45CC(C4)C5)c3n2)C[C@H]1F` (racemic) [Example 6, N-((3R,4R)-1-(9-(bicyclo[1.1.1]pentan-1-yl)-6-((3-methoxy-1-methyl-1H-pyrazol-4-yl)amino)-9H-purin-2-yl)-4-fluoropyrrolidin-3-yl)acrylamide], the IC50 [1] is reported as ≥ 300 nM, the IC50 [2] is reported as ≥ 100 nM and the IC50 [3] is reported as ≤ 10 nM. For the same compound, the IC50 [4] was ≥ 100 nM, the IC50 [5] was ≤ 10 nM and the IC50 [6] was ≤ 10 nM. The IC50 [7] was < 50 nM, the IC50 [8] was 50 to 300 nM and the IC50 [9] was ≤ 10 nM.

For `C=CC(=O)N[C@@H]1CN(c2nc(Nc3cn(C)nc3OC)c3ncc(C)n3n2)C[C@H]1F` [Example 1, N-((3R,4R)-4-fluoro-1-(4-((3-methoxy-1-methyl-1H-pyrazol-4-yl)amino)-7-methylimidazo[2,1-f][1,2,4]triazin-2-yl)pyrrolidin-3-yl)acrylamide], the IC50 [1] was ≥ 300 nM, the IC50 [2] was ≥ 100 nM and the IC50 [3] was ≤ 10 nM. The IC50 [4] was ≥ 100 nM, the IC50 [5] was ≤ 10 nM and the IC50 [6] was ≤ 10 nM. For the same compound, the IC50 [7] was < 50 nM, the IC50 [8] was < 50 nM and the IC50 [9] was ≤ 10 nM.

With `C=CC(=O)N[C@@H]1CN(c2nc(Nc3cn([C@H]4CCN(C)C4)nc3OC)c3ncc(C)n3n2)C[C@H]1F` [Example 2, N-((3R,4R)-4-fluoro-1-(4-((3-methoxy-1-((S)-1-methylpyrrolidin-3-yl)-1H-pyrazol-4-yl)amino)-7-methylimidazo[2,1-f][1,2,4]triazin-2-yl)pyrrolidin-3-yl)acrylamide] the IC50 [1] was 50 to 300 nM, the IC50 [2] was ≥ 100 nM and the IC50 [4] was ≥ 100 nM. For the same compound, the IC50 [5] was ≤ 10 nM, the IC50 [6] was ≤ 10 nM and the IC50 [7] was < 50 nM. For the same compound, the IC50 [8] was < 50 nM and the IC50 [9] was ≤ 10 nM.

`C=CC(=O)N[C@@H]1CN(c2nc(Nc3cn(C4CCN(C)CC4)nc3OC)c3ncc(C)n3n2)C[C@H]1F` [Example 4, N-((3R,4R)-4-fluoro-1-(4-((3-methoxy-1-(1-methylpiperidin-4-yl)-1H-pyrazol-4-yl)amino)-7-methylimidazo[2,1-f][1,2,4]triazin-2-yl)pyrrolidin-3-yl)acrylamide] was tested, and the IC50 [1] was 50 to 300 nM, the IC50 [2] was ≥ 100 nM and the IC50 [4] was ≥ 100 nM. For the same compound, the IC50 [5] was ≤ 10 nM, the IC50 [6] was ≤ 10 nM and the IC50 [7] was < 50 nM. The IC50 [8] was < 50 nM and the IC50 [9] was ≤ 10 nM.

In the case of `C=CC(=O)N[C@@H]1CN(c2nc(Nc3cn(CCN(C)C)nc3OC)c3ncc(C)n3n2)C[C@H]1F` [Example 5, N-((3R,4R)-1-(4-((1-(2-(dimethylamino)ethyl)-3-methoxy-1H-pyrazol-4-yl)amino)-7-methylimidazo[2,1-f][1,2,4]triazin-2-yl)-4-fluoropyrrolidin-3-yl)acrylamide], the IC50 [1] is reported as 50 to 300 nM, the IC50 [2] is reported as ≥ 100 nM and the IC50 [4] is reported as ≥ 100 nM. For the same compound, the IC50 [5] was ≤ 10 nM, the IC50 [6] was ≤ 10 nM and the IC50 [7] was < 50 nM. The IC50 [8] was < 50 nM and the IC50 [9] was ≤ 10 nM.
